Measured values published in paper PMC4021972 (2014).

Tested on: KRAS utr-2 (RNA, G4) GGAAGGCGGCGG
Test: UV-vis titration (Soret band)
Details: 100 mM KCl; 50 mM Tris-HCl pH 7.4 (from methods); 6 μM C14 titrated with G4-RNA; simple binding equation

KD: ~ 5 × 10^-7 M
Structure (SMILES): CCCCCCCCCCCCCC[n+]1ccc(-c2c3nc(c(-c4cc[n+](C)cc4)c4ccc([nH]4)c(-c4cc[n+](C)cc4)c4nc(c(-c5cc[n+](C)cc5)c5ccc2[nH]5)C=C4)C=C3)cc1
